The values below come from patent US10294237B2, “Bicyclic heterocyclic amide derivative” (Sumitomo Dainippon Pharma Co., Ltd., priority 2015, dated 2019).

Structures are written as SMILES. pIC50: −log10 of the molar value.

In assay [1] the test system is HCT-116 cells. Kind of assay: Test for inhibiting sphere-forming ability of cancer cells. As to conditions: HCT-116 spheres, non-adherent, serum-free, 4 days, CellTiter-Glo, read-out: IC50 (Sphere IC50 value; concentration for 50% inhibition of cell proliferation). In kind it is cell-based. The method, then:
(§1) The reliable methods established for measuring the self-renewal ability of cells which is one of the CSC's properties include a method for measuring the sphere-forming ability of cancer cells in non-adherent condition in the absence of serum (Cancer Res 65, 5506-5511 (2005)). HCT-116 cells were available from the American Type Culture Collection (ATCC). HCT-116 cells were cultured at 37° C. and 5% CO2 using the McCoy's 5a medium containing 10% fetal bovine serum (FBS) and 1% penicillin/streptomycin. HCT-116 cells were seeded in a 384 Well Black Clear Bottom Ultra-Low Attachment Microplate (Corning Cat. No. 3827) in an amount of 350-800 cells/well using the DMEM/F12 medium containing 2% B27 supplement (GIBCO), 20 ng/mL epidermal growth factor (EGF) (peprotech), 10 ng/mL basic fibroblast growth factor (bFGF) (peprotech), 5 μg/mL insulin (Sigma), and 1% penicillin/streptomycin. The test compounds were added into each well to adjust the final concentration of DMSO to 0.1%, and the cells were cultured for 4 days. The number of viable cells in each well was then measured with CellTiter-Glo® Luminescent Cell Viability Assay (Promega) to calculate the concentration of each test compound for 50% inhibition of cell proliferation (Sphere IC50 value; μmol/L).
The experiment of Test Example 1 was performed for the compounds of each Example. The concentrations of each test compound for 50% inhibition of cell profeliration (Sphere IC50 value; μmol/L) are shown in the following Table.
(In general: In ATP-based viability assays light output follows the ATP content of the culture.)

In assay [2] the test system is HCT-116 cells. Kind of assay: Test for inhibiting sphere-forming ability of cancer cells (in the presence of BSA). In kind it is cell-based. To be noted: HCT-116 spheres, non-adherent, 5% BSA, 4 days, CellTiter-Glo, read-out: IC50 (Sphere IC50 value; concentration for 50% inhibition of cell proliferation). How it is done:
as §1, with “HCT-116” for “The reliable methods established for measuring the self-renewal ability of cells which is one of the CSC's properties include a method for measuring the sphere-forming ability of cancer cells in non-adherent condition in the absence of serum (Cancer Res 65, 5506-5511 (2005)). HCT-116”, “(Sigma), 5% bovine serum albumin (BSA),” for “(Sigma),”
The experiment of Test Example 2 was performed for the compounds of each Example. The concentrations of each test compound for 50% inhibition of cell profeliration (Sphere IC50 value; μmol/L) are shown in the following Table.

For orientation: pIC50 means the IC50 on a negative log10 scale, so that one unit is a factor of ten. For the molecule `O=C(Nc1cn(Cc2ccc(F)cc2)cn1)c1cnc2c(c1)CCNC2` [Example 61], the negative-log IC50 (pIC50) in the assay on HCT-116 cells [1] is 6.43; in the assay with HCT-116 cells [2], 7.22.

With `O=C(Nc1cn(Cc2cc(F)cc(F)c2)cn1)c1cnc2c(c1)CCNC2` [Example 47, N-[1-(3,5-difluorobenzyl)-1H-imidazol-4-yl]-5,6,7,8-tetrahydro-1,7-naphthyridine-3-carboxamide], the pIC50 was 7.10 in the assay with HCT-116 cells [1] (Homo sapiens, 96 h) and 7.30 in the assay on HCT-116 cells [2] (Homo sapiens, HCT-116, 96 h).

Take `O=C(Nc1cn(Cc2ccc(F)c(C(F)(F)F)c2)cn1)c1ccc2c(c1)CCNC2` [Example 92, N-{1-[4-fluoro-3-(trifluoromethyl)benzyl]-1H-imidazol-4-yl}-1,2,3,4-tetrahydroisoquinoline-6-carboxamide]: the negative logarithm of the IC50 (pIC50) with HCT-116 cells [1] (Homo sapiens, 96 h) is 7.15; with HCT-116 cells [2] (Homo sapiens, HCT-116, 96 h), 7.05.

For the molecule `Cc1c(NC(=O)c2ccc3c(c2)CCNC3)ncn1Cc1cccc(C(F)(F)F)c1` [Example 21], the pIC50 with HCT-116 cells [1] (Homo sapiens, 96 h) was 5.21; with HCT-116 cells [2] (Homo sapiens, HCT-116, 96 h), 5.21.

On to `O=C(Nc1cn(Cc2ccc(C(F)(F)F)cc2)cn1)c1ccc2c(c1)CCNC2` [Example 83], for which the negative logarithm of the IC50 (pIC50) is 6.14 with HCT-116 cells [1] and 6.27 in the assay with HCT-116 cells [2].

For `O=C(Nc1cn(Cc2ccc(C(F)(F)F)o2)cn1)c1ccc2c(c1)CCNC2` [Example 104], the pIC50 is 6.21 with HCT-116 cells [1] (Homo sapiens, 96 h) and 6.28 in the assay with HCT-116 cells [2] (Homo sapiens, HCT-116, 96 h).

As to `O=C(Nc1cn(Cc2cc(Cl)cc(Cl)c2)cn1)c1ccc2c(c1)CCNC2` [Example 101, N-[1-(3,5-dichlorobenzyl)-1H-imidazol-4-yl]-1,2,3,4-tetrahydroisoquinoline-6-carboxamide], the negative-log IC50 (pIC50) is 7.15 in the assay on HCT-116 cells [1] (Homo sapiens, 96 h) and 7.22 with HCT-116 cells [2] (Homo sapiens, HCT-116, 96 h).

In the case of `Cc1ccccc1Cn1cnc(NC(=O)c2ccc3c(c2)CCNC3)c1` [Example 76], the negative logarithm of the IC50 (pIC50) is 6.17 in the assay with HCT-116 cells [1] and 6.23 with HCT-116 cells [2].

`O=C(Nc1cn(Cc2ccc3ccccc3c2)cn1)c1ccc2c(c1)CCNC2` [Example 103]: the pIC50 in the assay with HCT-116 cells [1] (Homo sapiens, 96 h) is 5.38; in the assay on HCT-116 cells [2] (Homo sapiens, HCT-116, 96 h) it was 5.21.

With `O=C(Nc1cn(CCOc2ccccc2)cn1)c1cnc2c(c1)CCNC2` [Example 116], the figures for the pIC50 in the assay on HCT-116 cells [1] and in the assay on HCT-116 cells [2] were 5.22 and 5.71, respectively.

As for `Cc1cccc(Cn2cnc(NC(=O)c3cnc4c(c3)CCNC4)c2)c1` [Example 121], the negative logarithm of the IC50 (pIC50) in the assay with HCT-116 cells [1] is 7.10; in the assay with HCT-116 cells [2], 7.15.

In the case of `O=C(Nc1cn(Cc2ccc(F)cc2)cn1)c1ccc2c(c1)CCNC2` [Example 79], the pIC50 was 6.26 in the assay with HCT-116 cells [1] and 6.31 in the assay with HCT-116 cells [2].

Take `O=C(Nc1cn(Cc2cccc(Cl)c2)cn1)c1ccc2c(n1)CCNC2` [Example 44]: the pIC50 in the assay with HCT-116 cells [1] (Homo sapiens, 96 h) is 6.11; in the assay with HCT-116 cells [2] (Homo sapiens, HCT-116, 96 h), 6.24.

For the molecule `O=C(Nc1cn(Cc2cccc(F)c2)cn1)c1ccc2c(c1)CCNC2` [Example 77], the negative-log IC50 (pIC50) in the assay on HCT-116 cells [1] was 6.21; with HCT-116 cells [2] it was 6.22.

Take `O=C(Nc1cn(Cc2cccc(OC(F)(F)F)c2)cn1)c1cnc2c(c1)CCNC2` [Example 49, N-{1-[3-(trifluoromethoxy)benzyl]-1H-imidazol-4-yl}-5,6,7,8-tetrahydro-1,7-naphthyridine-3-carboxamide]: the negative logarithm of the IC50 (pIC50) is 7.15 in the assay on HCT-116 cells [1] (Homo sapiens, 96 h) and 7.15 with HCT-116 cells [2] (Homo sapiens, HCT-116, 96 h).

As for `O=C(Nc1cn(Cc2ccc(Cl)c(F)c2)cn1)c1ccc2c(c1)CCNC2` [Example 90, N-[1-(4-chloro-3-fluorobenzyl)-1H-imidazol-4-yl]-1,2,3,4-tetrahydroisoquinoline-6-carboxamide], the pIC50 with HCT-116 cells [1] (Homo sapiens, 96 h) is 7.15; with HCT-116 cells [2] (Homo sapiens, HCT-116, 96 h), 7.00.

`Cc1ccc(Cn2cnc(NC(=O)c3ccc4c(c3)CCNC4)c2)cc1C(F)(F)F` [Example 97, N-{1-[4-methyl-3-(trifluoromethyl)benzyl]-1H-imidazol-4-yl}-1,2,3,4-tetrahydroisoquinoline-6-carboxamide]: the pIC50 was 7.15 in the assay on HCT-116 cells [1] (Homo sapiens, 96 h) and 6.23 in the assay with HCT-116 cells [2] (Homo sapiens, HCT-116, 96 h).

Consider `O=C(Nc1cn(CC2CCCCC2)cn1)c1ccc2c(c1)CCNC2` [Example 85], for which the negative logarithm of the IC50 (pIC50) was 6.21 with HCT-116 cells [1] and 6.23 in the assay on HCT-116 cells [2].

As to `O=C(Nc1cn(Cc2ccccc2F)cn1)c1cnc2c(c1)CCNC2` [Example 46], the pIC50 in the assay on HCT-116 cells [1] is 6.12; in the assay with HCT-116 cells [2] it was 6.36.

`O=C(/C=C/c1ccc2c(c1)OC(F)(F)O2)Nc1cn(Cc2cccc(Cl)c2)cn1` [Example 40]: the negative-log IC50 (pIC50) with HCT-116 cells [1] (Homo sapiens, 96 h) was 7.10; in the assay on HCT-116 cells [2] (Homo sapiens, HCT-116, 96 h), 7.15.

For the molecule `O=C(Nc1cn(Cc2cccc(C(F)(F)F)c2)cn1)c1ccc2c(c1)CCC(O)C2` (stereo not drawn) [Example 111, 6-Hydroxy-N-{1-[3-(trifluoromethyl)benzyl]-1H-imidazol-4-yl}-5,6,7,8-tetrahydronaphthalene-2-carboxamide], the negative-log IC50 (pIC50) in the assay with HCT-116 cells [1] (Homo sapiens, 96 h) was 6.16; with HCT-116 cells [2] (Homo sapiens, HCT-116, 96 h), 6.01.

As for `O=C(Nc1cn(Cc2cc(Br)cc(Br)c2)cn1)c1ccc2c(c1)CCNC2` [Example 96], the negative logarithm of the IC50 (pIC50) with HCT-116 cells [1] (Homo sapiens, 96 h) was 7.22; in the assay on HCT-116 cells [2] (Homo sapiens, HCT-116, 96 h), 6.70.

Regarding `O=C(Nc1cn(Cc2cccc(Cl)c2)cn1)c1ccc2c(c1)CCNC2` [Example 45], the pIC50 in the assay with HCT-116 cells [1] (Homo sapiens, 96 h) was 6.09; in the assay on HCT-116 cells [2] (Homo sapiens, HCT-116, 96 h), 6.18.

Take `O=C(Nc1cn(Cc2ccc(Cl)c(F)c2)cn1)c1cnc2c(c1)CCNC2` [Example 51, N-[1-(4-chloro-3-fluorobenzyl)-1H-imidazol-4-yl]-5,6,7,8-tetrahydro-1,7-naphthyridine-3-carboxamide]: the pIC50 in the assay with HCT-116 cells [1] (Homo sapiens, 96 h) is 7.22; in the assay on HCT-116 cells [2] (Homo sapiens, HCT-116, 96 h), 7.30.

For `O=C(Nc1cn(Cc2cc(F)c(F)c(F)c2)cn1)c1ccc2c(c1)CCNC2` [Example 25, N-[1-(3,4,5-Trifluorobenzyl)-1H-imidazol-4-yl]-(1,2,3,4-tetrahydroisoquinoline-6-carboxamide ditrifluoroacetate], the negative-log IC50 (pIC50) in the assay on HCT-116 cells [1] (Homo sapiens, 96 h) is 7.22; in the assay with HCT-116 cells [2] (Homo sapiens, HCT-116, 96 h), 7.05.

Regarding `O=C(Nc1cn(Cc2ccccc2F)cn1)c1ccc2c(c1)CCNC2` [Example 72], the pIC50 in the assay on HCT-116 cells [1] was 5.46; with HCT-116 cells [2] it was 5.26.

In the case of `O=C(Nc1cn(Cc2ccc(F)c(Cl)c2)cn1)c1ccc2c(c1)CCNC2` [Example 95, N-[1-(3-chloro-4-fluorobenzyl)-1H-imidazol-4-yl]-1,2,3,4-tetrahydroisoquinoline-6-carboxamide], the negative logarithm of the IC50 (pIC50) in the assay on HCT-116 cells [1] (Homo sapiens, 96 h) was 7.10; in the assay with HCT-116 cells [2] (Homo sapiens, HCT-116, 96 h), 7.05.
